Measured values from patent publication US11273168B2, “Methods of treating anxiety by administering a substituted quinolone” (OTSUKA PHARMACEUTICAL CO., LTD., priority 2010, dated 2022).
Where a name gives a salt, the structure may show the parent alone.

Experiments:
Assay type in all cases: biochemical
Serotonin (5-HT) uptake = target: T1, Serotonin (5-HT) uptake (Rattus norvegicus, UniProt P31652); assay: Serotonin (5-HT) uptake inhibitory activity using rat brain synaptosome (frontal cortex); settings: tritium-labeled 5-HT 8 nM, 37° C. 10 minutes, read-out: 50% Inhibitory concentration
T1 construct: The suspension was used as a crude synaptosome fraction; from tissue; host or cells: rat (male Wistar) frontal cortex, crude synaptosome fraction
T1 sequence (P31652 whole entry): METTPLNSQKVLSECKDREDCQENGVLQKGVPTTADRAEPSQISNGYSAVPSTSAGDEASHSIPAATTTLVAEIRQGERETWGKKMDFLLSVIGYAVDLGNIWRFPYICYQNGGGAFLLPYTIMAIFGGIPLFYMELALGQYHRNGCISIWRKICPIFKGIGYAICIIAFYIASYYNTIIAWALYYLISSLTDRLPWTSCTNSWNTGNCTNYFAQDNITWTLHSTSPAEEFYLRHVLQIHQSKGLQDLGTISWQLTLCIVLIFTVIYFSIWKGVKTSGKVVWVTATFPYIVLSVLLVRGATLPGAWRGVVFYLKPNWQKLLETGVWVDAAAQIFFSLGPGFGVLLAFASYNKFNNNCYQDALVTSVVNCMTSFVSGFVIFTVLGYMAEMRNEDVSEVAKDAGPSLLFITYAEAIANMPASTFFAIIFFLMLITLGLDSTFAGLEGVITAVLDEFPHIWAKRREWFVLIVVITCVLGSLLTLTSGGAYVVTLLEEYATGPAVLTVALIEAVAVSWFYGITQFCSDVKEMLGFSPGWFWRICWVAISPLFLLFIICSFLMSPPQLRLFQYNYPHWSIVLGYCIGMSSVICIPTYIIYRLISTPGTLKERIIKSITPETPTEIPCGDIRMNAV
Description: Measurement of Serotonin (5-HT) Uptake Inhibitory Activity of Test Compound Using Rat Brain Synaptosome
(§1) Male Wistar rats were decapitated, and their brains were removed and dissected to remove the frontal cortex. The separated frontal cortex was placed in a 20-fold weight of a 0.32 molarity (M) sucrose solution and homogenized with a potter homogenizer. The homogenate was centrifuged at 1000 g at 4° C. for 10 minutes, and the supernatant was further centrifuged at 20000 g at 4° C. for 20 minutes. […] The suspension was used as a crude synaptosome fraction.
(§2) Uptake reaction was performed using each well of a 96-well round-bottom plate and a 200 μl volume in total of a solution containing pargyline (final concentration: 10 μM) and ascorbic acid (final concentration: 0.2 mg/ml).
(§3) Specifically, a solvent, unlabeled 5-HT, and serially diluted test compounds were separately added to the wells, and the synaptosome fraction was added in an amount 1/10 of the final volume to each well and preincubated at 37° C. for 10 minutes. Then, a tritium-labeled 5-HT solution (final concentration: 8 nM) was added thereto to initiate uptake reaction at 37° C. 10 minutes later, the uptake reaction was terminated by suction filtration through a 96-well glass fiber filter plate. Furthermore, the filter was washed with a cold saline and then sufficiently dried. MicroScint-O (PerkinElmer Co., Ltd.) was added thereto, and the residual radioactivity on the filter was measured.
(§4) An uptake value obtained by the addition of only the solvent was defined as 100%, and an uptake value (nonspecific uptake value) obtained by the addition of the unlabeled 5-HT (final concentration: 10 μM) was defined as 0%. A 50%, inhibitory concentration was calculated from the test compound concentrations and inhibitory activities thereat.

[1] = target: Norepinephrine (NE) uptake (Rattus norvegicus, UniProt Q9WTR4); assay: Norepinephrine (NE) uptake inhibitory activity using rat brain synaptosome (hippocampus); settings: tritium-labeled NE 12 nM, 37° C. ten minutes, read-out: 50% inhibitory concentration
Description: Measurement of Norepinephrine (NE) Uptake Inhibitory Activity of Test Compound Using Rat Brain Synaptosome
Male Wistar rats were decapitated, and their brains were removed and dissected to remove the hippocampus. The separated hippocampus was placed in a 20-fold weight of a 0.32 molarity (M) sucrose solution and homogenized with a potter homogenizer. The homogenate was centrifuged at 1000 g at 4° C. for 10 minutes, and the supernatant was further centrifuged at 20000 g at 4° C. for 20 minutes. The pellet was suspended in an incubation buffer (20 mM HEPES buffer (pH 7.4) containing 10 mM glucose, 145 mM sodium chloride, 4.5 mM potassium chloride, 1.2 mM magnesium chloride, and 1.5 mM calcium chloride). The suspension was used as a crude synaptosome fraction.
as §2
as §3, with “unlabeled NE,” for “unlabeled 5-HT,”, “tritium-labeled NE” for “tritium-labeled 5-HT”, “concentration: 12” for “concentration: 8”, “C. Ten” for “C. 10”
as §4, with “NE” for “5-HT”, “50%” for “50%,”

Dopamine (DA) uptake = target: T2, Dopamine (DA) uptake (Rattus norvegicus, UniProt P23977); assay: Dopamine (DA) uptake inhibitory activity using rat brain synaptosome (corpus striatum); settings: tritium-labeled DA 2 nM, 37° C. ten minutes, read-out: 50% Inhibitory concentration
T2 construct: The suspension was used as a crude synaptosome fraction; from tissue; host or cells: rat (male Wistar) corpus striatum, crude synaptosome fraction
T2 sequence (P23977 whole entry): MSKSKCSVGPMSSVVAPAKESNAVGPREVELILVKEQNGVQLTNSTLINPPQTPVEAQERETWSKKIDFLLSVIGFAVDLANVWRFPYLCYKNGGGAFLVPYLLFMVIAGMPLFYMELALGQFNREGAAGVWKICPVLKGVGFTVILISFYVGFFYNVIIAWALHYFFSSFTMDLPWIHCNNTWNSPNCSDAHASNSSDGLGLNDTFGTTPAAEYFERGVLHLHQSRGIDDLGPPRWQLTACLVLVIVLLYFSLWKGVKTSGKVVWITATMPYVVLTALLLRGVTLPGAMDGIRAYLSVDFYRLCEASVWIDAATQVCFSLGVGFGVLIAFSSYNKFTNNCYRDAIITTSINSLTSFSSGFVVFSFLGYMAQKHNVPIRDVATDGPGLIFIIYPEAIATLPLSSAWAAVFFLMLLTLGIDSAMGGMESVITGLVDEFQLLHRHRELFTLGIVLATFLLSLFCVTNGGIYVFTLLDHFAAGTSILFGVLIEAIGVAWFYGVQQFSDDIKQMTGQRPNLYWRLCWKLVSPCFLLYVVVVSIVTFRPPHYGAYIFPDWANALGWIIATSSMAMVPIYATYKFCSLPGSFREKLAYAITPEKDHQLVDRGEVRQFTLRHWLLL
Description: Measurement of Dopamine (DA) Uptake Inhibitory Activity of Test Compound Using Rat Brain Synaptosome
as §1, with “corpus striatum.” for “frontal cortex.”, “corpus striatum” for “frontal cortex”
Uptake reaction was performed using each well of a 96-well round-bottom plate and a 200 μl volume in total of a solution containing pargyline (final concentration: 10 μM) and ascorbic acid (final concentration: 0.2 mg/mil).
as §3, with “unlabeled DA,” for “unlabeled 5-HT,”, “tritium-labeled DA” for “tritium-labeled 5-HT”, “concentration: 2” for “concentration: 8”, “C. Ten” for “C. 10”
as §4, with “DA” for “5-HT”, “50%” for “50%,”

SMILES	IC50 (Serotonin (5-HT) uptake)	IC50 [1]	IC50 (Dopamine (DA) uptake)
Cc1c(Cl)cccc1N1CC(C)(C)N[C@H]2CCCC[C@H]21 [Example 468]	3.8 nM	7.5 nM	54 nM
COc1c(F)cc(N2CC(C)(C)N[C@H]3CCCC[C@@H]32)cc1F [Example 233]	7.4 nM	3.7 nM	38.8 nM
CC1(C)CN(c2ccc(Cl)c(Cl)c2)[C@H]2CCCC[C@@H]2N1 [Example 246]	6.8 nM	3.8 nM	8.8 nM
COc1ccc(N2CC3(CCC3)N[C@H]3CCCC[C@H]32)c2ccoc12 [Example 579, (4a′R,8a′S)-4′-(7-methoxybenzofuran-4-yl)octahydro-1′H-spiro[cyclobutane-1,2′-quinoxaline]]	4.5 nM	5.1 nM	46.5 nM
CC1(C)CN(c2ccc3ccsc3c2)[C@H]2CCCC[C@@H]2N1 [Example 188]	6 nM	0.8 nM	7.9 nM
CC1(C)CN(c2cccc3[nH]ncc23)[C@H]2CCCC[C@H]2N1 [Example 778]	87.5 nM	4.2 nM	4.9 nM
c1cc2cc(N3CC4(CCCC4)N[C@H]4CCCC[C@@H]43)ccc2s1 (relative stereo) [Example 307]	19.3 nM	40.4 nM	68.2 nM
OCCN1CCN(c2ccc(Cl)c(Cl)c2)[C@H]2CCCC[C@@H]21 (relative stereo) [Example 300]	89.1 nM	9.9 nM	81.3 nM
CC1(C)CN(c2ccc(F)c3occc23)[C@@H]2CCCC[C@@H]2N1 [Example 77, (4aS,8aR)-1-(7-fluorobenzofuran-4-yl)-3,3-dimethyldecahydroquinoxaline]	0.8 nM	3.9 nM	41.2 nM
CC1(C)CN(c2ccc(OC(F)F)c(Cl)c2)[C@@H]2CCCC[C@H]2N1 [Example 1026]	2.4 nM	4.2 nM	12.3 nM
CN1[C@@H]2CCCC[C@H]2N(c2ccc(Cl)c(Cl)c2)CC1(C)C [Example 273]	44 nM	6.8 nM	8.7 nM
CC1(C)CN(c2cccc3sccc23)[C@H]2CCCC[C@H]2N1 [Example 124]	8.5 nM	0.8 nM	9.1 nM
C[C@@H]1CN(c2ccc3sccc3c2)[C@H]2CCCC[C@@H]2N1 (relative stereo) [Example 285]	19.7 nM	1.4 nM	43.9 nM
CC1(C)CN(c2ccc(F)c(Cl)c2)[C@@H]2CCCC[C@@H]2N1 [Example 112, (4aS,8aR)-1-(3-chloro-4-fluorophenyl)-3,3-dimethyldecahydroquinoxaline hydrochloride]	7.1 nM	87.3 nM	264 nM
CC1(C)CN(c2ccc3[nH]c(C#N)cc3c2)[C@H]2CCCC[C@H]2N1 [Example 781]	6.2 nM	3 nM	5.2 nM
CC1(C)CN(c2ccc3sccc3c2)[C@H]2CCCC[C@@H]2N1 [Example 186]	5.2 nM	3.8 nM	29.8 nM
CC1(C)CN(c2ccc(Cl)c(Cl)c2)[C@@H]2CCCCC[C@@H]2N1 (relative stereo) [Example 346]	10 nM	8.8 nM	7.8 nM
CC1(C)CN(c2cccc3ccsc23)[C@@H]2CCCC[C@@H]2N1 [Example 72]	2.6 nM	1 nM	47.9 nM
CC1(C)CN(c2ccc(OC(F)F)c3occc23)[C@@H]2CCCC[C@H]2N1 [Example 983]	6.5 nM	47.6 nM	173 nM
C[C@@H]1CN(c2ccc3ncsc3c2)[C@H]2CCCC[C@@H]2N1 [Example 1326]	37.8 nM	1.8 nM	91.8 nM
CC1(C)CN(c2cccc3occc23)[C@@H]2CCCC[C@@H]2N1 (relative stereo) [Example 33]	2.6 nM	0.7 nM	15.1 nM
